SMILES strings stand for the structures.

For this assay, the target named is FXR (Homo sapiens (Human), UniProt Q96RI1). As to the kind of experiment: FXR EC50 (FXR agonist activity reported with each example). The format is cell-based.
Sequence of FXR (Q96RI1 262-486): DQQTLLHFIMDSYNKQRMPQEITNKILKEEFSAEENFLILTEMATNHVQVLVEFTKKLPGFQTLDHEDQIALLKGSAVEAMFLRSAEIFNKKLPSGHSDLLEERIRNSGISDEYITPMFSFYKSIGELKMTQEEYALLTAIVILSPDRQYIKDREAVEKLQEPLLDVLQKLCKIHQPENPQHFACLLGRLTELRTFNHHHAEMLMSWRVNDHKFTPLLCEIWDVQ
Consider `CCOc1cc(OCC23CCC(OCc4c(-c5ccccc5C(F)(F)F)noc4C4CC4)(CC2)CC3)cnc1C(=O)O` [Example 297], for which the response was half-maximal at 0.543 µM (EC50).
Under `CC(C)(C#N)c1ccc(C23CCC(/C=C/c4c(-c5c(Cl)cncc5Cl)noc4C4CC4)(CC2)CO3)cc1` [Example 475, (E)-2-(4-(4-(2-(5-cyclopropyl-3-(3,5-dichloropyridin-4-yl)isoxazol-4-yl)vinyl)-2-oxabicyclo[2.2.2]octan-1-yl)phenyl)-2-methylpropanenitrile] stands 1.5 µM; under `O=C(O)c1ccc(OCC23CCC(OCc4c(-c5c(Cl)cccc5Cl)noc4C4CC4)(CC2)CC3)nc1` [Example 107, 6-((4-((5-cyclopropyl-3-(2,6-dichlorophenyl)isoxazol-4-yl)methoxy)bicyclo[2.2.2]octan-1-yl)methoxy)nicotinic acid], 0.077 µM; under `O=C(O)c1cc(OCC23CCC(COCc4c(-c5c(Cl)cncc5Cl)noc4C4CC4)(CC2)CC3)cc(C(F)(F)F)c1` [Example 464, 3-((4-(((5-cyclopropyl-3-(3,5-dichloropyridin-4-yl)isoxazol-4-yl)methoxy)methyl)bicyclo[2.2.2]octan-1-yl)methoxy)-5-(trifluoromethyl)benzoic acid], 0.3 µM.
Under `O=C(O)c1ncc(OCC23CCC(OCc4c(-c5ccccc5C(F)(F)F)noc4C4CC4)(CC2)CC3)c2ccccc12` [Example 296] stands 0.062 µM.
Under `O=C(O)c1cc(OC2CCC2)c2cc(OCC34CCC(OCc5c(-c6c(Cl)cncc6Cl)noc5C5CC5)(CC3)CC4)ccc2n1` [Example 344] stands 0.017 µM; under `O=C(O)c1cc(F)cc(OCC23CCC(OCc4c(-c5c(Cl)cccc5Cl)noc4C4CC4)(CC2)CC3)c1` [Example 94, 3-((4-((5-cyclopropyl-3-(2,6-dichlorophenyl)isoxazol-4-yl)methoxy)bicyclo[2.2.2]octan-1-yl)methoxy)-5-fluorobenzoic acid], 0.018 µM.
`O=C(O)c1cccc(-c2noc(C34CCC(COCc5c(-c6c(Cl)cccc6Cl)noc5C5CC5)(CC3)CC4)n2)c1` [Example 151, 3-(5-(4-(((5-cyclopropyl-3-(2,6-dichlorophenyl)isoxazol-4-yl)methoxy)methyl)bicyclo[2.2.2]octan-1-yl)-1,2,4-oxadiazol-3-yl)benzoic acid] returned an EC50 of 0.15 µM.
For `O=C(O)c1cc(OC2CCC2)c2cc(C#CC34CCC(OCc5c(-c6c(Cl)cncc6Cl)noc5C5CC5)(CC3)CC4)ccc2n1` [Example 402], the half-maximal effective concentration (EC50) is 0.052 µM.
Under `O=C(O)c1cc(F)c2nc(C34CCC(OCc5c(-c6c(Cl)cccc6Cl)noc5C5CC5)(CC3)CC4)sc2c1` [Example 16, 2-(4-((5-cyclopropyl-3-(2,6-dichlorophenyl)isoxazol-4-yl)methoxy)bicyclo[2.2.2]octan-1-yl)-4-fluorobenzo[d]thiazole-6-carboxylic acid] stands 0.036 µM; under `O=C(O)c1ccc(O)c2nc(C34CCC(OCc5c(-c6c(Cl)cncc6Cl)noc5C5CC5)(CC3)CC4)ccc12` [Example 407], 0.019 µM; under `O=C(O)c1ccc2nc(C34CCC(/C=C/c5c(-c6c(Cl)cccc6Cl)noc5C5CC5)(CC3)CC4)sc2c1` [Example 180, (E)-2-(4-(2-(5-cyclopropyl-3-(2,6-dichlorophenyl)isoxazol-4-yl)vinyl)bicyclo[2.2.2]octan-1-yl)benzo[d]thiazole-6-carboxylic acid], 0.043 µM.
With `COc1c(C#CC23CCC(OCc4c(-c5c(Cl)cncc5Cl)noc4C4CC4)(CC2)CC3)cccc1C(=O)O` [Example 383] the figure was 0.82 µM; with `COc1cc(C(=O)O)c(F)c(-c2noc(C34CCC(OCc5c(-c6c(Cl)cncc6Cl)noc5C5CC5)(CC3)CC4)n2)c1` [Example 244, 3-(5-(4-((5-cyclopropyl-3-(3,5-dichloropyridin-4-yl)isoxazol-4-yl)methoxy)bicyclo[2.2.2]octan-1-yl)-1,2,4-oxadiazol-3-yl)-2-fluoro-5-methoxybenzoic acid], 0.23 µM.
Under `O=C(O)C1CC1c1noc(C23CCC(OCc4c(-c5c(Cl)cccc5Cl)noc4C4CC4)(CC2)CC3)n1` (stereo not drawn) [Example 266, 2-(5-(4-((5-cyclopropyl-3-(2,6-dichlorophenyl)isoxazol-4-yl)methoxy)bicyclo[2.2.2]octan-1-yl)-1,2,4-oxadiazol-3-yl)cyclopropane-1-carboxylic acid] stands 0.72 µM.
`COC(=O)c1ccc(-c2noc(C34CCC(C=Cc5c(-c6c(Cl)cccc6Cl)noc5C5CC5)(CC3)C4)n2)cc1` [Intermediate 226C, methyl 4-(5-(4-(2-(5-cyclopropyl-3-(2,6-dichlorophenyl)isoxazol-4-yl)vinyl)bicyclo[2.2.1]heptan-1-yl)-1,2,4-oxadiazol-3-yl)benzoate] had a half-maximal effective concentration (EC50) of 2.5 µM.
Under `O=C(O)c1cc(C(F)(F)F)cc2nc(C34CCC(OCc5c(-c6c(Cl)cncc6Cl)noc5C5CC5)(CC3)CC4)ccc12` [Example 420] stands 0.003 µM; under `O=C(O)c1ccc(OCC23CCC(OCc4c(-c5c(Cl)cccc5Cl)noc4C4CC4)(CC2)CC3)cc1` [Example 99, 4-((4-((5-cyclopropyl-3-(2,6-dichlorophenyl)isoxazol-4-yl)methoxy)bicyclo[2.2.2]octan-1-yl)methoxy) benzoic acid], 0.14 µM; under `COc1cncc(Cl)c1-c1noc(C2CC2)c1COC12CCC(COc3cc(C)c(C(=O)O)cn3)(CC1)CC2` [Example 119, 6-((4-((3-(3-chloro-5-methoxypyridin-4-yl)-5-cyclopropylisoxazol-4-yl)methoxy)bicyclo[2.2.2]octan-1-yl)methoxy)-4-methylnicotinic acid], 0.12 µM.
With `O=C(O)c1cccc(-c2nc(C34CCC(OCc5c(-c6ccccc6C(F)(F)F)noc5C5CC5)(CC3)CC4)no2)n1` [Example 23, 6-(3-(4-((5-cyclopropyl-3-(2-(trifluoromethyl)phenyl)isoxazol-4-yl)methoxy)bicyclo[2.2.2]octan-1-yl)-1,2,4-oxadiazol-5-yl)picolinic acid] the figure was 2.8 µM; with `O=C(O)c1cccc2c1CCN(C(=O)C13CCC(OCc4c(-c5c(Cl)cccc5Cl)noc4C4CC4)(CC1)CC3)C2` [Example 139, 2-(4-((5-cyclopropyl-3-(2,6-dichlorophenyl)isoxazol-4-yl)methoxy)bicyclo[2.2.2]octane-1-carbonyl)-1,2,3,4-tetrahydroisoquinoline-5-carboxylic acid], 1.4 µM.
With `O=C(O)c1cc(C(F)(F)F)cc2nc(C34CCC(/C=C/c5c(-c6c(Cl)cncc6Cl)noc5C5CC5)(CC3)CC4)sc12` [Example 507, (E)-2-(4-(2-(5-cyclopropyl-3-(3,5-dichloropyridin-4-yl)isoxazol-4-yl)vinyl)bicyclo[2.2.2]octan-1-yl)-5-(trifluoromethyl)benzo[d]thiazole-7-carboxylic acid] the figure was 0.02 µM.
In turn, `O=C(O)c1cccc2c1CN(C(=O)C13CCC(OCc4c(-c5c(Cl)cccc5Cl)noc4C4CC4)(CC1)CC3)CC2` [Example 146, 2-(4-((5-cyclopropyl-3-(2,6-dichlorophenyl)isoxazol-4-yl)methoxy)bicyclo[2.2.2]octane-1-carbonyl)-1,2,3,4-tetrahydroisoquinoline-8-carboxylic acid] had a half-maximal effective concentration (EC50) of 3.1 µM. This EC50 is about 160-fold higher than that of the molecule before.
Under `COc1cc(OCC23CCC(OCc4c(-c5c(Cl)cncc5Cl)noc4C4CC4)(CC2)CC3)nc(C(=O)O)c1` [Example 323] stands 0.074 µM.

The term EC50 denotes the midpoint of the concentration-response curve. A high value points to a less potent agent.

The record behind these values is patent US10730863B2, “Bridged bicyclic compounds as farnesoid X receptor modulators” (BRISTOL-MYERS SQUIBB COMPANY, priority 2017, dated 2020).
